In patent publication US7557268B1, “Promoter for expression of a gene and response to infection or wounding” (priority 1999, dated 2009):
Read-outs that look alike come from different tables or passages of the source.

Columns and labels:
[1] = tested on: pAG2339 promoter deletion (gus reporter) in PR8-2, PR8-3, PR8-12; assay type: cell-based, tobacco; conditions: leaf disks, SA
[2] = tested on: pAG516 promoter deletion (gus reporter) in PR4-19, PR4-21, PR4-22; experiment: Promoter activity of deletion construct pAG516 in leaf disks of transgenic tobacco; assay type: cell-based; conditions: for Separated + SA Specific GUS Activity: leaf disks; for SA-Induction: vs fresh harvested control leaves
[3] = tested on: sugar beet promoter (gus reporter) in transgenic rape lines AG5947-t38, AG5947-t48; experiment: Induction of the promoter in leaf disks of transgenic rape by salicylic acid and PMG-elicitor; assay type: cell-based; conditions: SA 0.5 mM, PMG-Elicitor 25 μg/ml
Text: In order to examine the effect of salicylic acid and a purified PMG-elicitor from the cell wall of Phytophthora sojae (Valent, 1978) on the promoter activity, leaf disks with a diameter of 14 mm were stamped out of the leaves of greenhouse plants with the aid of a cork punch. The use of leaf disks facilitates the uptake of the salicylic acid or as the case may be the elicitor along the wound edge into the leaf tissue. Respectively 10 leaf disks from leaves of the transformed AG5947-t38 and […] were incubated in 90 mm sized petri dishes in salicylic acid containing medium (LS-medium without sucrose, 5 mM MES pH 7.0, 0.5 mM SA), in PMG-elicitor containing medium (LS-medium without sucrose, 5 mM MES pH 7.0, 25 μg elicitor/ml) or in control medium (LS-medium without sucrose, 5 mM MES pH 7.0) for 16 hours at 24° C. The activity of a promoter is described as in Jefferson (1987) measured by a quantitative determination of the GUS-activity.

[4] = tested on: pAG5947-trans promoter (gus reporter) in PR1-52, PR1-54, PR1-56; experiment: Promoter activity of pAG5947-trans in leaf disks of transgenic tobacco; assay type: cell-based; conditions: for SA-Induction: vs fresh harvested control leaves
[5] = tested on: promoter activity (transcript amount) in leaves of sugar beets; experiment: Activation of the promoter in sugar beet leaf disks by salicylic acid, RNA-blot with phosphoimager; assay type: cell-based; conditions: for transcript amount formed by the promoter activity: sugar beet leaf disks, 2.0 mM Salicyclic Acid
Description: In order to investigate the reaction of the promoter in sugar beet leaves to abiotic triggers such as wounds or, as the case may be, on the effect of resistance inductors such as salicylic acid, leaf disks (1 cm diameter) were punched out of 12 week old sugar beets with the aid of a cork stamp. Respectively 100 leaf disks were incubated in control medium (LS-Medium without Sucrose, 5 mM MES pH 7.0) or in salicylic acid containing medium (LS-Medium without Sucrose, 5 mM MES pH 7.0, 2.0 mM SA) for 16 hours at 24° C. Total cell RNA was isolated and an RNA-blot analysis was carried out as described above. The intensity of the hybridization as signal on the RNA-blot was quantified with the aid of a Phosphoimager. The promoter activity of the disks in the control set is not constant over the experiment (Table 8). Based on the 0 hour value, the promoter activity in the control set falls slightly after 3 hours, only to then increase over 6 hours and 11 hours until the 24 hour value. After 24 hours the transcript amount in the control set is approximately 3-fold higher than in the beginning of the experiment (0 h). This rise in the promoter activity is to be traced back to the wounding of the leaf tissue during the stamping out of the leaf disks. […] In the salicylic acid containing medium there is likewise a rise in the transcript amount depending upon the time (Table 8). […] Thus the transcript amount after 24 hours is approximately the 8.5-fold of the 0 h value. The cause of the higher activity of the promoter in the salicylic acid containing medium is the inducibility of the promoter by salicylic acid.

[6] = tested on: sugar beet promoter (pAG5947-trans, gus reporter) in transgenic tobacco PR1-52; experiment: Promoter activity in leaf disks of transgenic tobacco PR1-52 with increasing plant age; assay type: cell-based, Nicotianum tabacum cv. SR1; conditions: for Separated + SA Specific GUS-Activity: leaf disks, 0.5 mM SA, 16 hours; for SA-Induction: vs fresh harvested control leaves
Description: […] SR1. The produced tobacco transformates are given identification PR1-52, PR1-54 and PR1-56. The transformate PR1-52 is multiplied and placed in a greenhouse. After the plant has achieved a height of approximately 20 cm, the activatability of the sugar beet promoter is analyzed depending upon the plant age. For this, 6 leaves of different ages on the plant were selected. The oldest, lowest leaf is given reference number 1 and the youngest, highest leaf is given the reference number 6. From the leaf half of one of each leaf there is stamped out, with the aid of a 14 mm cork punch, respectively 15 equally sized leaf disks. Respectively 5 leaf disks are incubated in 90 mm sized petri dishes in salicylic acid containing medium (LS-Medium without Sucrose, 5 mM MES pH 7.0, 0.5 mM SA), in PMG-elicitor containing medium (LS-Medium without Sucrose, 5 mM MES pH 7.0, 1 unit elicitor/ml) or in control medium (LS-Medium without Sucrose, 5 mM MES pH 7.0) for 16 hours at 24° C. On the next day, from each treated leaf half again 5 disks were stamped out for control purposes. The activity of the promoter in these disks as well as the disks incubated over night were measured according to Jefferson (1987) by a quantitative determination of the GUS-activity. After 16 days the corresponding test is repeated with the still intact leaf halves of the leaves 1-6. The tobacco plant is in the meantime grown and approximately 50-60 cm high. […] The promoter activity increases with increasing age of the transgenic plants. The wounding or as the case may be the elicitation or as the case may be salicylic acid application leads, in the reporter gene plant with high plant age, in all examined leaves to a higher reporter gene activity and therewith promoter activity. The plant age has however no influence on the relative induction of the promoter by wounding, elicitation or salicylic acid application.

[7] = tested on: SR1 non-transgenic starting line; experiment: GUS activity in leaf disks of the non-transgenic tobacco starting line; assay type: cell-based

O=C(O)c1ccccc1O [SA, salicylic acid]
Separated + SA Specific GUS Activity ([1]; PR8-2 (pAG2339)): 1.7 pMol Mu × min^−1 × mg^−1 | Separated + SA Specific GUS Activity ([1]; PR8-3 (pAG2339)): 0 pMol Mu × min^−1 × mg^−1 | Separated + SA Specific GUS Activity ([1]; PR8-12 (pAG2339)): 0 pMol Mu × min^−1 × mg^−1 | Separated + SA Specific GUS Activity ([2]; PR4-19 (pAG516)): 16.6 pMol Mu × min^−1 × mg^−1 | SA-Induction ([2]; PR4-19 (pAG516)): 2.3 | Separated + SA Specific GUS Activity ([2]; PR4-21 (pAG516)): 21.3 pMol Mu × min^−1 × mg^−1 | SA-Induction ([2]; PR4-21 (pAG516)): 0.6 | Separated + SA Specific GUS Activity ([2]; PR4-22 (pAG516)): 19.3 pMol Mu × min^−1 × mg^−1 | SA-Induction ([2]; PR4-22 (pAG516)): 3.6 | SA-inducibility (in words) ([2]; plants transformed with the construct pAG516, leaf disks): small SA-inducibility | AG5947-t38 Specific GUS-Activities ([3]; AG5947-t38 leaf disks, 16 hours at 24° C.): 485.3 pMol Mu × min^−1 × mg^−1 | AG5947-t38 Induction ([3]; AG5947-t38 leaf disks, vs control medium): 19.8 | AG5947-t48 Specific GUS-Activity ([3]; AG5947-t48 leaf disks, 16 hours at 24° C.): 17.2 pMol Mu × min^−1 × mg^−1 | AG5947-t48 Induction ([3]; AG5947-t48 leaf disks, vs control medium): 9.2 | Separated + SA Specific GUS Activity ([4]; PR1-52 (pAG5947-trans), leaf disks): 218.93 pMol Mu × min^−1 × mg^−1 | SA-Induction ([4]; PR1-52 (pAG5947-trans)): 14.5 | Separated + SA Specific GUS Activity ([4]; PR1-54 (pAG5947-trans), leaf disks): 167.83 pMol Mu × min^−1 × mg^−1 | SA-Induction ([4]; PR1-54 (pAG5947-trans)): 8.0 | Separated + SA Specific GUS Activity ([4]; PR1-56 (pAG5947-trans), leaf disks): 661.19 pMol Mu × min^−1 × mg^−1 | SA-Induction ([4]; PR1-56 (pAG5947-trans)): 8.3 | change of reporter gene / promoter activity (in words) ([4]; lines PR1-52, PR1-54 and PR1-56 transformed with pAG5947-trans, leaf disks): significant induction | transcript amount after 24 hours relative to the 0 h value ([5]; sugar beet leaf disks in salicylic acid containing medium (2.0 mM SA)): ~8.5 fold | transcript amount formed by the promoter activity ([5]; Time 0 h): 81 PSL (photo stimulated luminescence)-units | transcript amount formed by the promoter activity ([5]; Time 3 h): 107 PSL (photo stimulated luminescence)-units | transcript amount formed by the promoter activity ([5]; Time 6 h): 284 PSL (photo stimulated luminescence)-units | transcript amount formed by the promoter activity ([5]; Time 11 h): 513 PSL (photo stimulated luminescence)-units | transcript amount formed by the promoter activity ([5]; Time 24 h): 688 PSL (photo stimulated luminescence)-units | Separated + SA Specific GUS-Activity ([6]; PR1-52, Leaf 1, t = 0 d): 314.92 pMol Mu × min^−1 × mg^−1 | SA-Induction ([6]; PR1-52, Leaf 1, t = 0 d): 5.3 | Separated + SA Specific GUS-Activity ([6]; PR1-52, Leaf 1, t = 16 d): 861.82 pMol Mu × min^−1 × mg^−1 | SA-Induction ([6]; PR1-52, Leaf 1, t = 16 d): 30.5 | Separated + SA Specific GUS-Activity ([6]; PR1-52, Leaf 2, t = 0 d): 205.53 pMol Mu × min^−1 × mg^−1 | SA-Induction ([6]; PR1-52, Leaf 2, t = 0 d): 13.6 | Separated + SA Specific GUS-Activity ([6]; PR1-52, Leaf 2, t = 16 d): 2358.18 pMol Mu × min^−1 × mg^−1 | SA-Induction ([6]; PR1-52, Leaf 2, t = 16 d): 30.7 | Separated + SA Specific GUS-Activity ([6]; PR1-52, Leaf 3, t = 0 d): 225.07 pMol Mu × min^−1 × mg^−1 | SA-Induction ([6]; PR1-52, Leaf 3, t = 0 d): 21.7 | Separated + SA Specific GUS-Activity ([6]; PR1-52, Leaf 3, t = 16 d): 555.62 pMol Mu × min^−1 × mg^−1 | SA-Induction ([6]; PR1-52, Leaf 3, t = 16 d): 8.8 | Separated + SA Specific GUS-Activity ([6]; PR1-52, Leaf 4, t = 0 d): 117.97 pMol Mu × min^−1 × mg^−1 | SA-Induction ([6]; PR1-52, Leaf 4, t = 0 d): 25.7 | Separated + SA Specific GUS-Activity ([6]; PR1-52, Leaf 4, t = 16 d): 1561.3 pMol Mu × min^−1 × mg^−1 | SA-Induction ([6]; PR1-52, Leaf 4, t = 16 d): 44.5 | Separated + SA Specific GUS-Activity ([6]; PR1-52, Leaf 5, t = 0 d): 140.37 pMol Mu × min^−1 × mg^−1 | SA-Induction ([6]; PR1-52, Leaf 5, t = 0 d): 29.4 | Separated + SA Specific GUS-Activity ([6]; PR1-52, Leaf 5, t = 16 d): 1220.71 pMol Mu × min^−1 × mg^−1 | SA-Induction ([6]; PR1-52, Leaf 5, t = 16 d): 9.0 | Separated + SA Specific GUS-Activity ([6]; PR1-52, Leaf 6, t = 0 d): 106.35 pMol Mu × min^−1 × mg^−1 | SA-Induction ([6]; PR1-52, Leaf 6, t = 0 d): 319.4 | Separated + SA Specific GUS-Activity ([6]; PR1-52, Leaf 6, t = 16 d): 1003.47 pMol Mu × min^−1 × mg^−1 | SA-Induction ([6]; PR1-52, Leaf 6, t = 16 d): 47.0 | Separated + SA Specific GUS Activity ([7]; leaf disks, SA): 6.2 pMol Mu × min^−1 × mg^−1 | SA-Induction ([7]; vs fresh harvested control leaves): 0.8
